# Structures can show the parent of a compound that is named as a salt.
# System: MIN6B1 cell
# Experiment: Assay for promoting activity on insulin secretion
# Format: cell-based, mouse
# Conditions: 10 μM test compound in KRB-HEPES with 16.8 mM glucose, 37° C., 22 minutes; relative value, insulin concentration for only DMSO = 100%
# Method: (1) Assay for Promoting Activity on Insulin Secretion
# In this assay, promoting activities on insulin secretion of the test compounds were studied using MIN6B1 cell, which was a strain of mouse pancreatic β-cells, and glibenclamide, which was a commercially available insulin secretion secretagogue, as a reference compound. The assay procedure is given below.
# MIN6B1 cells were seeded on a 48-well plate at a concentration of 1×10^5 cells/well (0.25 ml) (The medium was prepared by adding FCS (fetal calf serum) to DMEM (Dulbecco's Modified Eagle Medium) containing 25 mM glucose such that the FCS concentration became 10%). After two days, the medium was suctioned by an aspirator, each well was Washed four times with 0.2 ml of KRB-HEPES buffer (Krebs-Ringer-bicarbonate-N-2-hydroxylethylpiperazine-N′-2-ethanesulfonic acid; 130 mM NaCl, 4.7 mM KCl, 1.2 mM KH2PO4, 1.2 mM MgCl2.6H2O, 0.25 mM CaCl2.2H2O, 2.5 mM NaHCO3, 0.5% BSA, and 10 mM N-2-hydroxyethylpiperazine-N′-2-ethanesulfonic acid (pH 7.4)) containing 2.8 mM glucose warmed to 37° C., 0.2 ml of said buffer was again added, and the cells were incubated at 37° C. for 30 to 60 minutes. After the buffer was suctioned by an aspirator, 0.25 ml of a solution containing 10 μM of each test compound in KRB-HEPES containing 16.8 mM glucose was added to each well, and the cells were incubated at 37° C. for 22 minutes. The samples were pipetted and diluted by 25 to 51 times, and the insulin concentrations were analyzed using an insulin assay kit (Rat Insulin [^125I] Biotrak Assay System with Magnetic Separation; Amersham Bioscience K.K.). The test compounds were dissolved in 100% DMSO, and were added at the final concentration of 0.1%. The activity was expressed as a relative value, provided that insulin concentration for only DMSO was 100%.
row,SMILES,"Promotion activity on insulin secretion, % [%]"
1,"O=S1(=O)Cc2nc(-c3cc(F)c(Cl)cc3F)nc(N3CCC(O)(CCCO)CC3)c2C1 [Example 272, 1-[2-(4-chloro-2,5-difluorophenyl)-6,6-dioidxo-5,7-dihydrothieno[3,4-d]pyrimidin-4-yl]-4-(3-hydroxypropyl)piperidin-4-ol]",322
2,O=C(CO)NCC1CCN(c2nc(-c3cc(F)c(Cl)cc3F)nc3c2CS(=O)(=O)C3)CC1 [Example 331],308

# Same assay, conditions: Mus musculus, 22 min, 10 μM test compound in KRB-HEPES with 16.8 mM glucose, 37° C., relative value, insulin concentration for only DMSO = 100%, read-out: Promotion activity on insulin secretion, %
row,SMILES,activity at 10 µM [%]
1,"NC(=O)CCC1CCN(c2nc(-c3cc(F)c(Cl)cc3F)nc3c2CS(=O)(=O)C3)CC1 [Example 283, 3-{1-[2-(4-chloro-2,5-difluorophenyl)-6,6-dioxido-5,7-dihydrothieno[3,4-d]pyrimidin-4-yl]piperidin-4-yl}propanamide]",375
2,"O=C(O)CCCC1CCN(c2nc(C3CCCC3)nc3c2CS(=O)(=O)C3)CC1 [Example 407, 4-[1-(2-cyclopentyl-6,6-dioxido-5,7-dihydrothieno[3,4-d]pyrimidin-4-yl)piperidin-4-yl]butyric acid]",325
3,"COc1ccc(Cl)cc1C(=O)NCCc1ccc(S(=O)(=O)NC(=O)NC2CCCCC2)cc1 [Glibenclamide, glibenclamide, reference compound]",122
4,"O=C(O)CCNC1CCN(c2nc(-c3cc(F)c(Cl)cc3F)nc3c2CS(=O)(=O)C3)CC1 [Example 288, 3-({1-[2-(4-chloro-2,5-difluorophenyl)-6,6-dioxido-5,7-dihydrothieno[3,4-d]pyrimidin-4-yl]piperidin-4-yl}amino)propionic acid]",253
5,"NC(=O)CCN1CCN(c2nc(-c3cc(F)c(Cl)cc3F)nc3c2CS(=O)(=O)C3)CC1 [Example 269, 3-{4-[2-(4-chloro-2,5-difluorophenyl)-6,6-dioxido-5,7-dihydrothieno[3,4-d]pyrimidin-4-yl]piperazin-1-yl}propanamide]",212
6,"O=S1(=O)Cc2nc(-c3cc(F)c(Cl)cc3F)nc(N3CCC(NCCCO)CC3)c2C1 [Example 287, 3-({1-[2-(4-chloro-2,5-difluorophenyl)-6,6-dioxido-5,7-dihydrothieno[3,4-d]pyrimidin-4-yl]piperidin-4-yl}amino)propan-1-ol]",208
7,"C[C@@H]1CCCN(c2nc(-c3cc(F)c(Cl)cc3F)nc3c2CS(=O)(=O)C3)C1 [Example 1, (R)-2-(4-chloro-2,5-difluorophenyl)-4-(3-methylpiperidin-1-yl)-5,7-dihydrothieno[3,4-d]pyrimidine 6,6-dioxide hydrochloride]",355
8,"O=C(O)CCCC1CCN(c2nc(-c3cc(F)c(Cl)cc3F)nc3c2CS(=O)(=O)C3)CC1 [Example 291, 4-{1-[2-(4-chloro-2,5-difluorophenyl)-6,6-dioxido-5,7-dihydrothieno[3,4-d]pyrimidin-4-yl]piperidin-4-yl}butyric acid]",269

# System: normal mice
# Experiment: Oral glucose tolerance test on normal mouse
# Format: in vivo
# Conditions: ICR mice, nateglinide 10 mg/kg orally 30 minutes before glucose loading; at 30 minutes after glucose loading, relative to control group
# Method: (2) Oral Glucose Tolerance Test on Normal Mouse
# In this assay, preventive activities of test compounds against hyperglycemia following glucose loading were examined using normal mice and nateglinide, a commercially available oral anti-hyperglycemic agent, as a reference compound. The assay procedure is given below.
# ICR mice (male, six weeks old) that had been preliminary bred for one week were fasted for 18 to 20 hours to use as test animals. Each test compound was dissolved in 0.5% methylcellulose solution and orally administered at 3 mg/kg (10 mg/kg for nateglinide) before glucose loading. Timing to administer the test compound was selected to be optimal for each test compound, which was 10 minutes before glucose loading for the compounds of the present invention or 30 minutes before glucose loading for nateglinide, which was a reference compound. The hypoglycemic rate (%) at 30 minutes after glucose loading was measured relative to the control group.
row,SMILES,"Hypoglycemic rate, % [%]"
1,"CC(C)[C@H]1CC[C@H](C(=O)N[C@H](Cc2ccccc2)C(=O)O)CC1 [Nateglinide, nateglinide]",26

# — patent publication US7947690B2, “Pyrimidine derivative condensed with a non-aromatic ring” (Astellas Pharma Inc., priority 2004, dated 2011)
